# Biological target: T1, FABP4 (Homo sapiens, UniProt P15090)
# T1 construct: purchased Cayman Chemical 10010231
# Experiment: FABP4 Inhibitor/Ligand Screening Assay Kit: displacement of a fluorescent detection reagent
# Type: binding
# Conditions: displacement of detection reagent from FABP4; compounds diluted in PBS pH 7.4; fluorescence em 470 nm, ex 370 nm
# Description: FABP4 inhibitory activity was assessed by measuring the decrease in fluorescent signal of a detection reagent (DR) when displaced by a strong FABP4 ligand. […] Therefore, any effective ligand of the protein, which binds to the same binding pocket and can displace the DR, determines a reduction in the fluorescence read-out. The new molecular series was screened in a two-step procedure. Firstly, a single concentration of 5 µM was used to gain an estimation of the overall inhibitory effect of all the molecules.
# To analyze the inhibitory activity of FABP4 ligands, a displacement assay was utilized as described by the Cayman’s instruction, FABP4 Inhibitor/Ligand Screening Assay Kit, Item 10,010,231 (see Supplementary Materials for additional details). The samples of compounds for activity determination were prepared as a stock solution (1 mM) in DMSO. On the day of activity assay, the compounds were all diluted in phosphate buffer solution (PBS, pH 7.4) to different concentrations (100, 50, 10, 5, 2, 1, and 0 µM). Appropriate concentrations of DMSO in PBS were used as control. The detection reagent (FABP Assay Detection Reagent, Item 10010376) was used as provided by the Cayman’s kit. The diluted Detection Reagent probe was mixed with FABP4 protein present in the kit and incubated for 10 min at room temperature. Compounds were then added and equilibrated for another 10 min. Lastly, the fluorescence signal was recorded at 470 nm (i.e., emission, with the excitation fixed at 370 nm) with a CytoFluor® Series 4000 Fluorescence Multi-Well Plate Reader.
# T1 sequence (P15090 whole entry): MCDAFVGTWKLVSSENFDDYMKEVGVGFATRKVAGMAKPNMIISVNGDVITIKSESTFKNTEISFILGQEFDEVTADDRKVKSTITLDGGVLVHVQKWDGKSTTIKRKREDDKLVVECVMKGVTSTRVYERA
row,Compound,IC50 [µM]
1,"CCn1nc(-c2ccccc2)cc(NC(N)=O)c1=O [Compound 25c, (2-Ethyl-3-oxo-6-phenyl-2,3-dihydro-pyridazin-4-yl)urea]",> 50
2,"CCCn1nc(-c2ccccc2)cc(NC(N)=O)c1=O [Compound 25e, (3-Oxo-6-phenyl-2-propyl-2,3-dihydro-pyridazin-4-yl)urea]",> 50

# Other lines, results leading:
row,IC50 [µM],Compound
1,2.97 ± 0.26,"Cn1nc(-c2ccccc2)cc(NC(N)=O)c1=O [Compound 25a, (2-Methyl-3-oxo-6-phenyl-2,3-dihydro-pyridazin-4-yl)urea]"
2,> 50,Cc1cc(N)c(=O)n(-c2ccccc2)n1 [Compound 54]
3,23.2 ± 0.52,"Cn1nc(-c2ccccc2)cc(Nc2ccccc2C#N)c1=O [Compound 30b, 2-(2-Methyl-3-oxo-6-phenyl-2,3-dihydro-pyridazin-4-ylamino)benzonitrile]"
4,15.2 ± 0.76,"N#Cc1c(-c2ccccc2)nn(C2CCCCC2)c(=O)c1N [Compound 22, 5-Amino-1-cyclohexyl-6-oxo-3-phenyl-1,6-dihydropyridazine-4-carbonitrile]"
5,> 50,"CSc1nnc(-c2ccccc2)cc1N [Compound 27, 3-Methylsulfanyl-6-phenyl-pyridazin-4-ylamine]"
6,> 50,"Cc1cc(NC(N)=O)c(=O)n(-c2ccccc2)n1 [Compound 55, 1-(6-Methyl-3-oxo-2-phenyl-2,3-dihydropyridazin-4-yl)urea]"

# Same assay, conditions: summary statement in conclusions
row,"FABP4 inhibitory activity, IC50 in words",Compound
1,low micromolar range,"Cn1nc(-c2ccccc2)cc(NC(N)=O)c1=O [Compound 25a, (2-Methyl-3-oxo-6-phenyl-2,3-dihydro-pyridazin-4-yl)urea]"
2,low micromolar range,"Cn1nc(-c2ccccc2)cc(Nc2ccccc2C#N)c1=O [Compound 30b, 2-(2-Methyl-3-oxo-6-phenyl-2,3-dihydro-pyridazin-4-ylamino)benzonitrile]"
3,low micromolar range,"N#Cc1c(-c2ccccc2)nn(C2CCCCC2)c(=O)c1N [Compound 22, 5-Amino-1-cyclohexyl-6-oxo-3-phenyl-1,6-dihydropyridazine-4-carbonitrile]"

# System: not given
# Experiment: not given
# Conditions: not given
row,Compound,melting point [°C]
1,"CCn1nc(-c2ccccc2)cc(NC(N)=O)c1=O [Compound 25c, (2-Ethyl-3-oxo-6-phenyl-2,3-dihydro-pyridazin-4-yl)urea]",270 to 271
2,"NC(=O)Nc1cc(-c2ccccc2)nn(C2CCCCC2)c1=O [Compound 25b, (2-Cyclohexyl-3-oxo-6-phenyl-2,3-dihydro-pyridazin-4-yl)urea]",261 to 263
3,"CC(=O)c1cnn(-c2ccccc2)c(=O)c1N [Compound 18, 5-Acetyl-4-amino-2-phenylpyridazin-3(2H)-one]",181 to 183
4,"CC(C)C(=O)Nc1cc(-c2ccccc2)nn(C)c1=O [Compound 29c, N-(2-Methyl-3-oxo-6-phenyl-2,3-dihydro-pyridazin-4-yl)isobutyramide]",146 to 148
5,"NC(=O)Nc1cc(-c2ccccc2)n[nH]c1=O [Compound 28, (3-Oxo-6-phenyl-2,3-dihydro-pyridazin-4-yl)urea]",> 300
6,"Cn1nc(-c2ccccn2)cc(NC(N)=O)c1=O [Compound 49, (2-Methyl-3-oxo-6-pyridin-2-yl-2,3-dihydropyridazin-4-yl)-urea]",> 300
7,"Nc1cc(C2CCCCC2)n[nH]c1=O [Compound 37b, 4-Amino-6-cyclohexylpyridazin-3(2H)-one]",284 to 287
8,"Nc1cc(-c2ccccc2)nn(C2CCCCC2)c1=O [Compound 24b, 4-Amino-2-cyclohexyl-6-phenylpyridazin-3(2H)-one]",120 to 124
9,"Cn1nc(C2CCCCC2)cc(NC(N)=O)c1=O [Compound 39a, (6-Cyclohexyl-2-methyl-3-oxo-2,3-dihydropyridazin-4-yl)urea]",251 to 254
10,"CCCCn1nc(-c2ccccc2)cc(N)c1=O [Compound 24f, 4-Amino-2-butyl-6-phenylpyridazin-3(2H)-one]",67 to 69
11,"Cn1nc(-c2ccccc2)cc(C(N)=O)c1=O [Compound 51, 2-Methyl-3-oxo-6-phenyl-2,3-dihydropyridazine-4-carboxamide]",215 to 217
12,"CCCn1nc(-c2ccccc2)cc(NC(N)=O)c1=O [Compound 25e, (3-Oxo-6-phenyl-2-propyl-2,3-dihydro-pyridazin-4-yl)urea]",273 to 275
13,"Nc1cc(Cc2ccccc2)n[nH]c1=O [Compound 37d, 4-Amino-6-benzylpyridazin-3(2H)-one]",247 to 250
14,"CC(C)c1cc(N)c(=O)[nH]n1 [Compound 37c, 4-Amino-6-isopropylpyridazin-3(2H)-one]",246 to 248
15,"CC(=O)Nc1cc(-c2ccccc2)nn(C)c1=O [Compound 29a, N-(2-Methyl-3-oxo-6-phenyl-2,3-dihydro-pyridazin-4-yl)acetamide]",211 to 212
16,"Cn1nc(-c2ccc(N)cc2)cc(N)c1=O [Compound 42b, 4-Amino-6-(4-aminophenyl)-2-methylpyridazin-3(2H)-one]",208 to 209
17,"Cn1nc(-c2ccccc2O)cc(N)c1=O [Compound 42a, 4-Amino-6-(2-hydroxyphenyl)-2-methylpyridazin-3(2H)-one]",212 to 213
18,"Cn1nc(-c2ccccc2)cc(N)c1=S [Compound 32, 4-Amino-2-methyl-6-phenylpyridazine-3(2H)-thione]",134 to 135
19,"NC(=O)c1c(-c2ccccc2)n[nH]c(=O)c1N [Compound 6, 5-Amino-6-oxo-3-phenyl-1,6-dihydropyridazine-4-carboxylic acid amide]",> 300
20,"CCC(=O)Nc1cc(-c2ccccc2)nn(C)c1=O [Compound 29b, N-(2-Methyl-3-oxo-6-phenyl-2,3-dihydro-pyridazin-4-yl)propionamide]",210 to 211
21,"Cn1nc(-c2ccccc2O)cc(NC(N)=O)c1=O [Compound 43, [6-(2-Hydroxyphenyl)-2-methyl-3-oxo-2,3-dihydropyridazin-4-yl]-urea]",278 to 280
22,"Cc1nn(-c2ccccc2)c(=O)c(N)c1C#N [Compound 17, 5-Amino-3-methyl-6-oxo-1-phenyl-1,6-dihydropyridazine-4-carbonitrile]",201 to 203
23,"Nc1cc(-c2ccsc2)n[nH]c1=O [Compound 37a, 4-Amino-6-thiophen-3-yl-pyridazin-3(2H)-one]",> 300

# Next, values leading:
row,melting point [°C],Compound
1,187 to 189,"CCCC(=O)Nc1cc(-c2ccccc2)nn(C)c1=O [Compound 29d, N-(2-Methyl-3-oxo-6-phenyl-2,3-dihydro-pyridazin-4-yl)butyramide]"
2,294 to 295,"Cn1nc(-c2ccccn2)cc(N)c1=O [Compound 48, 4-Amino-2-methyl-6-pyridin-2-yl-pyridazin-3(2H)-one]"
3,> 300,"Cn1nc(-c2ccccc2)cc(NC(N)=O)c1=O [Compound 25a, (2-Methyl-3-oxo-6-phenyl-2,3-dihydro-pyridazin-4-yl)urea]"
4,260 to 263,"CC(C)n1nc(-c2ccccc2)cc(NC(N)=O)c1=O [Compound 25d, (2-Isopropyl-3-oxo-6-phenyl-2,3-dihydro-pyridazin-4-yl)urea]"
5,125 to 128,"NC(=O)c1c(-c2ccccc2)nn(C2CCCCC2)c(=O)c1N [Compound 21, 5-Amino-1-cyclohexyl-6-oxo-3-phenyl-1,6-dihydropyridazine-4-carboxylic acid amide]"
6,265 to 267,"CCCCn1nc(-c2ccccc2)cc(NC(N)=O)c1=O [Compound 25f, (2-Butyl-3-oxo-6-phenyl-2,3-dihydro-pyridazin-4-yl)urea]"
7,> 300,"NC(=O)Nc1cc(-c2ccccc2O)n[nH]c1=O [Compound 40, [6-(2-Hydroxy-phenyl)-3-oxo-2,3-dihydro-pyridazin-4-yl]-urea]"
8,247 to 249,"Cc1nn(-c2ccccc2)c(=O)c(N)c1C(N)=O [Compound 16, 5-Amino-3-methyl-6-oxo-1-phenyl-1,6-dihydropyridazine-4-carboxylic acid amide]"
9,287 to 289,"N#Cc1c(-c2ccccc2)n[nH]c(=O)c1N [Compound 7, 5-Amino-6-oxo-3-phenyl-1,6-dihydropyridazine-4-carbonitrile]"
10,228 to 229,"Nc1c(C(=O)Nc2ccccc2)c(-c2ccccc2)n[nH]c1=O [Compound 4a, 5-Amino-6-oxo-3-phenyl-1,6-dihydropyridazine-4-carboxylic acid phenylamide]"
11,170 to 172,"N#Cc1c(-c2ccccc2)nn(C2CCCCC2)c(=O)c1N [Compound 22, 5-Amino-1-cyclohexyl-6-oxo-3-phenyl-1,6-dihydropyridazine-4-carbonitrile]"
12,248 to 251,"CC(C)c1cc(NC(N)=O)c(=O)n(C)n1 [Compound 39b, (6-Isopropyl-2-methyl-3-oxo-2,3-dihydropyridazin-4-yl)urea]"
13,168 to 170,"CSc1nnc(-c2ccccc2)cc1N [Compound 27, 3-Methylsulfanyl-6-phenyl-pyridazin-4-ylamine]"
14,172 to 173,"CCn1nc(-c2ccccc2)c(C(=O)Nc2ccccc2)c(N)c1=O [Compound 5a, 5-Amino-1-ethyl-6-oxo-3-phenyl-1,6-dihydropyridazine-4-carboxylic acid phenylamide]"
15,288 to 290,"Cc1cc(NC(N)=O)c(=O)n(-c2ccccc2)n1 [Compound 55, 1-(6-Methyl-3-oxo-2-phenyl-2,3-dihydropyridazin-4-yl)urea]"
16,141 to 143,"CCCNC(=O)c1c(-c2ccccc2)nn(CC)c(=O)c1N [Compound 5b, 5-Amino-1-ethyl-6-oxo-3-phenyl-1,6-dihydro-pyridazine-4-carboxylic acid propylamide]"
17,79 to 81,"CCCn1nc(-c2ccccc2)cc(N)c1=O [Compound 24e, 4-Amino-6-phenyl-2-propylpyridazin-3(2H)-one]"
18,104 to 108,"Cn1nc(Cc2ccccc2)cc(N)c1=O [Compound 38d, 4-Amino-6-benzyl-2-methylpyridazin-3(2H)-one]"
19,214 to 216,"Cn1nc(-c2ccccc2)cc(Nc2cccc(C(N)=O)c2)c1=O [Compound 31a, 3-(2-Methyl-3-oxo-6-phenyl-2,3-dihydro-pyridazin-4-ylamino)benzamide]"
20,140 to 142,"Cn1nc(-c2ccccc2)cc(Nc2ccccc2C(N)=O)c1=O [Compound 31b, 2-(2-Methyl-3-oxo-6-phenyl-2,3-dihydro-pyridazin-4-ylamino)benzamide]"
21,270 to 272,"CC(=O)Nc1ccc(-c2cc(N)c(=O)n(C)n2)cc1 [Compound 44, N-[4-(5-Amino-1-methyl-6-oxo-1,6-dihydropyridazin-3-yl)-phenyl]-acetamide]"
22,122 to 124,"CC(C)n1nc(-c2ccccc2)cc(N)c1=O [Compound 24d, 4-Amino-2-isopropyl-6-phenylpyridazin-3(2H)-one]"
23,234 to 235,"Cn1nc(-c2ccccc2)cc(Nc2cccc(C#N)c2)c1=O [Compound 30a, 3-(2-Methyl-3-oxo-6-phenyl-2,3-dihydro-pyridazin-4-ylamino)benzonitrile]"
24,119 to 121,"Cc1nn(-c2ccccc2)c(=O)c(N)c1-c1ccn[nH]1 [Compound 57, 4-Amino-6-methyl-2-phenyl-5-(1H-pyrazol-5-yl)pyridazin-3(2H)-one]"
25,178 to 179,"Cn1nc(-c2ccsc2)cc(N)c1=O [Compound 38a, 4-Amino-2-methyl-6-thiophen-3-yl-pyridazin-3(2H)-one]"
